Measurements from patent publication US8541460B2, “PDK-1/Akt signaling inhibitors” (The Ohio State University, priority 2003, dated 2013).
Read-outs that look alike come from different tables or passages of the source.

Legend:
[1] = system: CAKI-1; assay: NCI DTP cell line screen (SRB), Renal Cancer; format: cell-based, human; settings: for TGI: in M (unit assumed)
Description: (§1) Screening of compounds 70 and 71 against several cancer cell lines The human tumor cell lines of the cancer screening panel are grown in RPMI 1640 medium containing 5% fetal bovine serum and 2 mM L-glutamine. For a typical screening experiment, cells are inoculated into 96 well microtiter plates in 100 μL at plating densities ranging from 5,000 to 40,000 cells/well depending on the doubling time of individual cell lines. After cell inoculation, the microtiter plates are incubated at 37° C., 5% CO2, 95% air and 100% relative humidity for 24 h prior to addition of experimental drugs.
(§2) After 24 h, two plates of each cell line are fixed in situ with TCA, to represent a measurement of the cell population for each cell line at the time of drug addition (Tz). Experimental drugs are solubilized in dimethyl sulfoxide at 400-fold the desired final maximum test concentration and stored frozen prior to use. At the time of drug addition, an aliquot of frozen concentrate is thawed and diluted to twice the desired final maximum test concentration with complete medium containing 50 μg/ml gentamicin. Additional four, 10-fold or ½ log serial dilutions are made to provide a total of five drug concentrations plus control. Aliquots of 100 μl of these different drug dilutions are added to the appropriate microtiter wells already containing 100 μl of medium, resulting in the required final drug concentrations.
(§3) Following drug addition, the plates are incubated for an additional 48 h at 37° C., 5% CO2, 95% air, and 100% relative humidity. For adherent cells, the assay is terminated by the addition of cold TCA. Cells are fixed in situ by the gentle addition of 50 μl of cold 50% (w/v) TCA (final concentration, 10% TCA) and incubated for 60 minutes at 4° C. The supernatant is discarded, and the plates are washed five times with tap water and air dried. Sulforhodamine B (SRB) solution (100 μl) at 0.4% (w/v) in 1% acetic acid is added to each well, and plates are incubated for 10 minutes at room temperature. After staining, unbound dye is removed by washing five times with 1% acetic acid and the plates are air dried. Bound stain is subsequently solubilized with 10 mM trizma base, and the absorbance is read on an automated plate reader at a wavelength of 515 nm. For suspension cells, the methodology is the same except that the assay is terminated by fixing settled cells at the bottom of the wells by gently adding 50 μl of 80% TCA (final concentration, 16% TCA). Using the seven absorbance measurements [time zero, (Tz), control growth, (C), and test growth in the presence of drug at the five concentration levels (Ti)], the percentage growth is calculated at each of the drug concentrations levels. Percentage growth inhibition is calculated as: [(Ti−Tz)/(C−Tz)]×100 for concentrations for which Ti>/=Tz [(Ti−Tz)/Tz]×100 for concentrations for which Ti<Tz
(§4) Three dose response parameters are calculated for each experimental agent. […] The drug concentration resulting in total growth inhibition (TGI) is calculated from Ti=Tz. […] Values are calculated for each of these three parameters if the level of activity is reached; however, if the effect is not reached or is exceeded, the value for that parameter is expressed as greater or less than the maximum or minimum concentration tested.
(§5) The methods described were used to test compounds 70 and 71 on a panel of sixty cell lines under a screening service provided by the Developmental Therapeutics Program at the National Institutes of Health. Shown in FIG. 1C are 1, RPMI-8226 leukemia cells; 2; NCI-H322M non-small cell lung cancer cells; 3, HT29 colon cancer cells; 4, U251 CNS cancer cells; 5, SK-MEL-28 melanoma cancer cells; 6, SK-OV-3 ovarian cancer cells; 7, RXF 393 renal cancer cells; 8, PC-3 prostate cancer cells; 9, MDA-MB-231 breast cancer cells.

[2] = system: ACHN; assay: NCI DTP cell line screen (SRB), Renal Cancer; format: cell-based, human; settings: for TGI: in M (unit assumed)
Description: as §1, §2, §3, §4, §5

[3] = system: UO-31; assay: NCI DTP cell line screen (SRB), Renal Cancer; format: cell-based, human; settings: for TGI: in M (unit assumed)
Description: as §1, §2, §3, §4, §5

[4] = system: RXF 393; assay: NCI DTP cell line screen (SRB), Renal Cancer; format: cell-based, human
Description: as §1, §2, §3, §4, §5

[5] = system: A549/ATCC; assay: NCI DTP cell line screen (SRB), Non-Small Cell Lung Cancer; format: cell-based
Description: as §1, §2, §3, §4, §5

[6] = system: HOP-62; assay: as above; format: cell-based
Description: as §1, §2, §3, §4, §5

[7] = system: NCI-H23; assay: as above; format: cell-based
Description: as §1, §2, §3, §4, §5

[8] = system: EKVX; assay: as above; format: cell-based
Description: as §1, §2, §3, §4, §5

[9] = read-out: LC50 (the source's name)

## NCC(=O)Nc1ccc(-n2nc(C(F)(F)F)cc2-c2ccc3c(ccc4ccccc43)c2)cc1 [Compound 70, 2-Amino-N-{4-[5-(2-phenanthrenyl)-3-(trifluoromethyl)-1H-pyrazol-1-yl]-phenyl}-acetamide]
[1]; Log10 Concentration −4.0
  Percent Growth: −44%
[1]; Log10 Concentration −5.0
  Percent Growth: −75%
[1]; Log10 Concentration −6.0
  Percent Growth: 42%
[1]; Log10 Concentration −7.0
  Percent Growth: 95%
[1]; Log10 Concentration −8.0
  Percent Growth: 87%
[1]
  TGI: 2.27E−06
[2]; Log10 Concentration −4.0
  Percent Growth: −16%
[2]; Log10 Concentration −5.0
  Percent Growth: −60%
[2]; Log10 Concentration −6.0
  Percent Growth: 70%
[2]; Log10 Concentration −7.0
  Percent Growth: 102%
[2]; Log10 Concentration −8.0
  Percent Growth: 94%
[2]
  TGI: 3.45E−06
[3]; Log10 Concentration −4.0
  Percent Growth: −36%
[3]; Log10 Concentration −5.0
  Percent Growth: −64%
[3]; Log10 Concentration −6.0
  Percent Growth: 68%
[3]; Log10 Concentration −7.0
  Percent Growth: 84%
[3]; Log10 Concentration −8.0
  Percent Growth: 84%
[3]
  TGI: 3.29E−06
[4]; RXF 393, Log10 Concentration −4.0
  Percent Growth: 10%
[4]; RXF 393, Log10 Concentration −5.0
  Percent Growth: −56%
[4]; RXF 393, Log10 Concentration −6.0
  Percent Growth: 56%
[4]; RXF 393, Log10 Concentration −7.0
  Percent Growth: 75%
[4]; RXF 393, Log10 Concentration −8.0
  Percent Growth: 91%
[5]
  TGI: 2.96E−06
[5]; Log10 Concentration −4.0
  Percent Growth: −31%
[5]; Log10 Concentration −5.0
  Percent Growth: −57%
[5]; Log10 Concentration −6.0
  Percent Growth: 51%
[5]; Log10 Concentration −7.0
  Percent Growth: 86%
[5]; Log10 Concentration −8.0
  Percent Growth: 102%
[6]
  TGI: 3.01E−06
[6]; Log10 Concentration −4.0
  Percent Growth: −57%
[6]; Log10 Concentration −5.0
  Percent Growth: −70%
[6]; Log10 Concentration −6.0
  Percent Growth: 64%
[6]; Log10 Concentration −7.0
  Percent Growth: 93%
[6]; Log10 Concentration −8.0
  Percent Growth: 90%
[7]
  TGI: 2.87E−06
[7]; Log10 Concentration −4.0
  Percent Growth: −66%
[7]; Log10 Concentration −5.0
  Percent Growth: −79%
[7]; Log10 Concentration −6.0
  Percent Growth: 67%
[7]; Log10 Concentration −7.0
  Percent Growth: 102%
[7]; Log10 Concentration −8.0
  Percent Growth: 101%
[8]
  TGI: 3.25E−06
[8]; Homo sapiens, read-out: LC50
  CC50: 7080 nM
[8]; Log10 Concentration −4.0
  Percent Growth: −65%
[8]; Log10 Concentration −5.0
  Percent Growth: −72%
[8]; Log10 Concentration −6.0
  Percent Growth: 75%
[8]; Log10 Concentration −7.0
  Percent Growth: 100%
[8]; Log10 Concentration −8.0
  Percent Growth: 110%

## N=C(N)Nc1ccc(-n2nc(C(F)(F)F)cc2-c2ccc3c(ccc4ccccc43)c2)cc1 [Compound 71, 4-[5-(2-Phenanthrenyl)-3-(trifluoromethyl)-1H-pyrazol-1-yl]-phenyl-guanidine]
[1]
  GI50: 1830 nM
  TGI: 3.22E−06
[1]; Log10 Concentration −4.0
  Mean Optical Densities: 0.315
  Percent Growth: −47%
[1]; Log10 Concentration −5.0
  Mean Optical Densities: −0.067
  Percent Growth: −100%
[1]; Log10 Concentration −6.0
  Mean Optical Densities: 1.804
  Percent Growth: 103%
[1]; Log10 Concentration −7.0
  Mean Optical Densities: 1.642
  Percent Growth: 89%
[1]; Log10 Concentration −8.0
  Mean Optical Densities: 1.735
  Percent Growth: 97%
[2]
  GI50: 1670 nM
  TGI: 3.15E−06
[2]; Log10 Concentration −4.0
  Mean Optical Densities: 0.291
  Percent Growth: −22%
[2]; Log10 Concentration −5.0
  Mean Optical Densities: 0.034
  Percent Growth: −91%
[2]; Log10 Concentration −6.0
  Mean Optical Densities: 0.964
  Percent Growth: 90%
[2]; Log10 Concentration −7.0
  Mean Optical Densities: 0.902
  Percent Growth: 81%
[2]; Log10 Concentration −8.0
  Mean Optical Densities: 0.898
  Percent Growth: 80%
[3]
  GI50: 1570 nM
  TGI: 2.92E−06
[3]; Log10 Concentration −4.0
  Mean Optical Densities: 0.288
  Percent Growth: −35%
[3]; Log10 Concentration −5.0
  Mean Optical Densities: −0.030
  Percent Growth: −100%
[3]; Log10 Concentration −6.0
  Mean Optical Densities: 1.332
  Percent Growth: 87%
[3]; Log10 Concentration −7.0
  Mean Optical Densities: 1.407
  Percent Growth: 94%
[3]; Log10 Concentration −8.0
  Mean Optical Densities: 1.375
  Percent Growth: 91%
[4]
  TGI: 2.91E−06
[4]; Log10 Concentration −4.0
  Mean Optical Densities: 0.385
  Percent Growth: −4%
[4]; Log10 Concentration −5.0
  Mean Optical Densities: 0.156
  Percent Growth: −61%
[4]; Log10 Concentration −6.0
  Mean Optical Densities: 0.629
  Percent Growth: 53%
[4]; Log10 Concentration −7.0
  Mean Optical Densities: 0.629
  Percent Growth: 53%
[4]; Log10 Concentration −8.0
  Mean Optical Densities: 0.582
  Percent Growth: 42%
[5]
  GI50: 1680 nM
  TGI: 3.04E−06
[5]; Log10 Concentration −4.0
  Mean Optical Densities: 0.135
  Percent Growth: −63%
[5]; Log10 Concentration −5.0
  Mean Optical Densities: −0.032
  Percent Growth: −100%
[5]; Log10 Concentration −6.0
  Mean Optical Densities: 1.121
  Percent Growth: 93%
[5]; Log10 Concentration −7.0
  Mean Optical Densities: 1.145
  Percent Growth: 96%
[5]; Log10 Concentration −8.0
  Mean Optical Densities: 1.140
  Percent Growth: 96%
[5]; [9]
  CC50: 5510 nM
[6]
  GI50: 1720 nM
  TGI: 3.12E−06
[6]; Log10 Concentration −4.0
  Mean Optical Densities: 0.329
  Percent Growth: −36%
[6]; Log10 Concentration −5.0
  Mean Optical Densities: 0.011
  Percent Growth: −98%
[6]; Log10 Concentration −6.0
  Mean Optical Densities: 1.255
  Percent Growth: 96%
[6]; Log10 Concentration −7.0
  Mean Optical Densities: 1.267
  Percent Growth: 97%
[6]; Log10 Concentration −8.0
  Mean Optical Densities: 1.285
  Percent Growth: 100%
[7]
  GI50: 1790 nM
  TGI: 3.18E−06
[7]; Log10 Concentration −4.0
  Mean Optical Densities: 0.151
  Percent Growth: −67%
[7]; Log10 Concentration −5.0
  Mean Optical Densities: −0.041
  Percent Growth: −100%
[7]; Log10 Concentration −6.0
  Mean Optical Densities: 1.679
  Percent Growth: 101%
[7]; Log10 Concentration −7.0
  Mean Optical Densities: 1.515
  Percent Growth: 87%
[7]; Log10 Concentration −8.0
  Mean Optical Densities: 1.585
  Percent Growth: 93%
[7]; [9]
  CC50: 5640 nM
[8]
  GI50: 1060 nM
  TGI: 2.24E−06
[8]; Log10 Concentration −4.0
  Mean Optical Densities: 0.145
  Percent Growth: −74%
[8]; Log10 Concentration −5.0
  Mean Optical Densities: −0.008
  Percent Growth: −100%
[8]; Log10 Concentration −6.0
  Mean Optical Densities: 0.711
  Percent Growth: 54%
[8]; Log10 Concentration −7.0
  Mean Optical Densities: 0.737
  Percent Growth: 63%
[8]; Log10 Concentration −8.0
  Mean Optical Densities: 0.713
  Percent Growth: 55%
[8]; [9]
  CC50: 4740 nM
